Experiments:
panel of 442 kinases [1] = target: T1, panel of 442 kinases (Homo sapiens, UniProt Q12852); format: binding; conditions: Compound Concentration 10 µM
T1 construct: purchased KINOMEscan
T1 sequence (Q12852 1-859): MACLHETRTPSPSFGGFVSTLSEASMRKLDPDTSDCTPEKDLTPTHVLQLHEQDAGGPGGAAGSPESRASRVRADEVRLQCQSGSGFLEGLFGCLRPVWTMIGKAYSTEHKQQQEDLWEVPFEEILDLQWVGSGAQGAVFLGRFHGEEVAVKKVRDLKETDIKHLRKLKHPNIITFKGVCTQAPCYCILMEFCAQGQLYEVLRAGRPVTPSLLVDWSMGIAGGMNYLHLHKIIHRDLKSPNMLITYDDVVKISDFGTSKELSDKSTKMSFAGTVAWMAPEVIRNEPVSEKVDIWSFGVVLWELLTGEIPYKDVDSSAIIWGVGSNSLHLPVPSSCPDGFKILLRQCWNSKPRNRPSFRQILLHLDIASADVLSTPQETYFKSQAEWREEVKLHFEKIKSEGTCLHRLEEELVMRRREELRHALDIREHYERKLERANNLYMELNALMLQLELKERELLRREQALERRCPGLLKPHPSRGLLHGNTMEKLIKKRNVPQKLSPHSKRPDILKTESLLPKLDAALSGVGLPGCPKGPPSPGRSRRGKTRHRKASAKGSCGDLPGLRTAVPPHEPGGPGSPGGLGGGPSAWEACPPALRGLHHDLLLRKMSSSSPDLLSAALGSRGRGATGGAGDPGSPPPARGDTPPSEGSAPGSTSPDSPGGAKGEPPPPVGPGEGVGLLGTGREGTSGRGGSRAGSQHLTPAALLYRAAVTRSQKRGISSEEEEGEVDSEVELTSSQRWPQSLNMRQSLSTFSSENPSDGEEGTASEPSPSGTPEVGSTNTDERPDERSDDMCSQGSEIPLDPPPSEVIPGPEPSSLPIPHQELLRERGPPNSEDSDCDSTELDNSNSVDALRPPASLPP
From the text: (§1) We assessed the selectivity of members of this scaffold using the KINOMEscan methodology across a near comprehensive panel of 442 kinases [[18,27]].

panel of 442 kinases [2] = target: T2, panel of 442 kinases (Homo sapiens, UniProt Q8N752); format: binding; conditions: Compound Concentration 10 µM
T2 construct: purchased KINOMEscan
T2 sequence (Q8N752 1-337): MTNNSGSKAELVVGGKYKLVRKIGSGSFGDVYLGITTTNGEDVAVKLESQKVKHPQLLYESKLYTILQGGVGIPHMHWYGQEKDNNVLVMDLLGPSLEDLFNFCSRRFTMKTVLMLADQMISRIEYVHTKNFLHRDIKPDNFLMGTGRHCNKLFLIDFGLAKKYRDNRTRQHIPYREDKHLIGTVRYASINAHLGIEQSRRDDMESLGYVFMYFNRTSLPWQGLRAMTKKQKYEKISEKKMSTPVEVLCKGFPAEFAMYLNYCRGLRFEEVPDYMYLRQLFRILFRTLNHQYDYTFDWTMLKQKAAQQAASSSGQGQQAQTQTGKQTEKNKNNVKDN
From the text: as §1

## CCOc1cc(C(=O)N2CCC(N3CCN(C)CC3)CC2)ccc1Nc1ncc2c(n1)N(C1CCCC1)c1ccccc1C(=O)N2C [Compound 26]
Panel of 442 kinases [1]
  KINOMEscan: DLK: 100
Panel of 442 kinases [2]
  KINOMEscan: CSNK1A1L: 99

## COc1cc(C(=O)N2CCC(N3CCN(C)CC3)CC2)ccc1Nc1ncc2c(n1)N(C1CCCC1)c1ccccc1C(=O)N2C [Compound 25, 11-cyclopentyl-2-((2-methoxy-4-(4-(4-methylpiperazin-1-yl)piperidine-1-carbonyl)phenyl)amino)-5-methyl-5H-benzo[e]pyrimido[5,4-b][1,4]diazepin-6(11H)-one]
Panel of 442 kinases [1]
  KINOMEscan: DLK: 62
Panel of 442 kinases [2]
  KINOMEscan: CSNK1A1L: 100

## COc1cc(C(=O)N2CCC(N3CCN(C)CC3)CC2)ccc1Nc1ncc2c(n1)N1CCc3cccc(c31)C(=O)N2C [Compound 24]
Panel of 442 kinases [1]
  KINOMEscan: DLK: 78

## COc1cc(C(=O)N2CCC(N3CCN(C)CC3)CC2)ccc1Nc1ncc2c(n1)N(C)c1ccccc1C(=O)N2C [15 (LRRK2-IN-1)]
Panel of 442 kinases [1]
  KINOMEscan: DLK: 81
Panel of 442 kinases [2]
  KINOMEscan: CSNK1A1L: 100

Source: paper PMC3914206
